Results taken from patent US8846704B2, “Thiopyrimidine-based compounds and uses thereof” (YM Biosciences Austraila Pty Ltd, priority 2007, dated 2014).

Key:
human JAK2 = target: T1, human JAK2 (Homo sapiens, UniProt O60674); assay: Alphascreen tyrosine kinase enzyme assay, JAK2 kinase domain; assay type: biochemical; conditions: read-out: JAK2 IC50_nM
T1 construct: The kinase domain of human JAK2 was amplified; GST (N); made in house; host or cells: Sf9 insect cells (baculovirus)
Summary of the method: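 JAK2 kinase domain expressed in baculovirus/Sf9 and glutathione-affinity purified. Compounds (final […]) pre-incubated 20 min with enzyme in 10 mM HEPES pH 7.5, MgCl2, NaCl, vanadate, 0.1% Tween 20.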

human JAK3 = target: T2, human JAK3 (Homo sapiens, UniProt P52333); assay: Alphascreen tyrosine kinase enzyme assay, JAK3 kinase domain; assay type: biochemical; conditions: read-out: JAK3 IC50_nM
T2 construct: The kinase domain of human JAK3 was amplified; GST (N); made in house; host or cells: Sf9 insect cells (baculovirus)
T2 sequence (P52333 822-1111 limits assumed): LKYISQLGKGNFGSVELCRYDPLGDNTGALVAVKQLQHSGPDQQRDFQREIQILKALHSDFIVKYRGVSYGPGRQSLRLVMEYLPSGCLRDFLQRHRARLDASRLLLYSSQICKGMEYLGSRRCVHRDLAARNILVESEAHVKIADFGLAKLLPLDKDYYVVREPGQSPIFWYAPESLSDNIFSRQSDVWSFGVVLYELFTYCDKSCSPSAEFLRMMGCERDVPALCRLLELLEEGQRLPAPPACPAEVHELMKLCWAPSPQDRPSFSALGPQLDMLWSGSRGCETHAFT
Summary of the method: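 GST-affinity-purified human JAK3 kinase domain (baculovirus/Sf9) was pre-incubated 20 min with compound ([…]) in HEPES pH 7.5 buffer with MgCl2, vanadate and Tween 20. Biotinylated peptide substrate ([…]) and ATP were then added; phosphotyrosine was detected by AlphaScreen PY100 acceptor and streptavidin donor beads after 2–3 h.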

[1] = target: T3, BaF3 TELJAK2 cells (BafT_J2) (Homo sapiens, UniProt O60674); assay: Cellular screening, BaF3 TEL:JAK2 cells, Alamar Blue; assay type: cell-based; conditions: 40 hr, read-out: BafT_J2 IC50_nM
T3 construct: fused on or other part: TEL (ETV6) N-terminal part, coding nucleotides 1-487, serves as the oligomerising partner; It is fused through a Sal I site to the JAK2 kinase domain and expressed from pTRE2 in BaF3 cells bearing pTET-off; P41212 (Transcription factor ETV6)
T3 sequence (O60674 whole entry, change not shown, the tested form may be a part): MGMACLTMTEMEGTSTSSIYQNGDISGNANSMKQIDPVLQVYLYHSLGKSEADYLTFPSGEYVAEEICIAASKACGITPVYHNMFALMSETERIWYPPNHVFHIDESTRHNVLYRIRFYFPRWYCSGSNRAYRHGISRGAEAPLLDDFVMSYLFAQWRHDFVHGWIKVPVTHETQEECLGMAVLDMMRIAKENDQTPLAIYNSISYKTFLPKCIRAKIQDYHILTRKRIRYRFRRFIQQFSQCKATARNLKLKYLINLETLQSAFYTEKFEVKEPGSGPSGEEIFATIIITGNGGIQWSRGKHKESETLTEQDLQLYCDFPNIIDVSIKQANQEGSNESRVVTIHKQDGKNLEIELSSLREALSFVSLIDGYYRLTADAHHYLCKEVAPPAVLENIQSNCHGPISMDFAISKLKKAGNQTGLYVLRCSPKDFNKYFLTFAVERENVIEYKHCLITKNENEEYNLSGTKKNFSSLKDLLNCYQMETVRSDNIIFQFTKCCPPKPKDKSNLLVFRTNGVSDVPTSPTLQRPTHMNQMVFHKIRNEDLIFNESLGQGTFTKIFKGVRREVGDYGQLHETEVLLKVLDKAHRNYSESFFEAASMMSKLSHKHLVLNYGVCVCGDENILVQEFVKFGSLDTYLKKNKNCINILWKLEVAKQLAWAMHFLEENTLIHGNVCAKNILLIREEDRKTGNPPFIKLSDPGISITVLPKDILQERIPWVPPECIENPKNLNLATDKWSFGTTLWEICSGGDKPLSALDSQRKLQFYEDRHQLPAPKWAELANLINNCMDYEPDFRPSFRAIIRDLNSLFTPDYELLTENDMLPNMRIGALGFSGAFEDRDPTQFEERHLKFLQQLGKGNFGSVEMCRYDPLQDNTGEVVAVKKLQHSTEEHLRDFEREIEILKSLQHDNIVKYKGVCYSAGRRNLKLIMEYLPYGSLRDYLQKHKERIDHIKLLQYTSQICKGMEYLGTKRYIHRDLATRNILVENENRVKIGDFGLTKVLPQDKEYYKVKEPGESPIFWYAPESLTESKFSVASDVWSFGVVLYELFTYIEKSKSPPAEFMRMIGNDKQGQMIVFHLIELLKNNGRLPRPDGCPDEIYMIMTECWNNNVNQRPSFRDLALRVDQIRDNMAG
Summary of the method: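 Tet-off BaF3 cells carrying a TEL (nt 1-487)–JAK2 kinase-domain fusion, grown factor-independently in DMEM with 10% Tet-approved FBS without WEHI 3B medium. Compounds were diluted to 20 μM in screening plates, and cells (50,000–200,000 cell/mL at 1.1×) were incubated 40 hr at 37 °C, 5% CO2. Alamar Blue was then added for 4-6 hours; read at 544 nm.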

BaF3 wild-type cells = assay: Cellular screening, BaF3 wild-type cells, Alamar Blue; assay type: cell-based; conditions: Mus musculus, 40 hr, read-out: BAF3wt IC50_nM
Summary of the method: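 Compounds, screened from dilution plates at 20 μM, were added as 10× final stocks to cells grown in DMEM/10% FCS/10% WEHI 3B conditioned medium. Cells were seeded at 1.1× final (50,000–200,000 cells/mL) and incubated 40 hr at 37° C, 5% CO2. Viability was read at 544 nm after a further 4–6 hours with Alamar Blue.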

CTLL2 = assay: Cellular screening, CTLL2 cells, Alamar Blue; assay type: cell-based; conditions: Mus musculus, CTLL-2, read-out: CTLL2 IC50_nM
Summary of the method: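 Viability is read with Alamar Blue at 544 nm, the dye added for the final 4-6 hours. Compounds were incubated for 40 hr with CTLL2 cells taken from late-log-phase culture, at 37° C in 5% CO2.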

T1 sequence (O60674 849-1124 limits assumed): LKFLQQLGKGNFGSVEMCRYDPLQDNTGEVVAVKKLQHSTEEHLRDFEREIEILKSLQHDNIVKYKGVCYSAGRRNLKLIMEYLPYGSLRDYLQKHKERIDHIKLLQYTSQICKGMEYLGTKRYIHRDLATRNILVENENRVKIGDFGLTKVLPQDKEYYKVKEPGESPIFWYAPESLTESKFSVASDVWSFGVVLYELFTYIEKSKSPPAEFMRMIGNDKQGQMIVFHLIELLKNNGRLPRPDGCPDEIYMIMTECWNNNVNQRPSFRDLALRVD

NC(=O)c1nccn1Cc1ccc(Sc2ccnc(Nc3ccc(N4CCOCC4)cc3)n2)cc1 [Compound 149, 1-(4-(2-(4-morpholinophenylao)pyrimidin-4-ylthio)benzyl)-1H-imidazole-2-carboxamide]
IC50 (human JAK2): > 1 µM
IC50 (human JAK3): < 0.5 µM
GI50 [1]: < 5 µM
IC50 (BaF3 wild-type cells): < 5 µM
IC50 (CTLL2): < 20 µM

Cc1cnc(Nc2ccc(N3CCOCC3)cc2)nc1Sc1ccc2c(c1)CCCN2 [Compound 166, 5-methyl-N-(4-morpholinophenyl)-4-(1,2,3,4-tetrahydroquinolin-6-ylthio)pyrimidin-2-ae]
IC50 (human JAK2): > 1 µM
IC50 (human JAK3): < 0.5 µM
GI50 [1]: < 5 µM
IC50 (BaF3 wild-type cells): < 20 µM
IC50 (CTLL2): < 20 µM

c1cn(Cc2ccc(Sc3ccnc(Nc4ccc(N5CCOCC5)cc4)n3)cc2)cn1 [Compound 127, 4-(4-((1H-imidazol-1-yl)methyl)phenylthio)-N-(4-morpholinophenyl)pyrimidin-2-ae]
IC50 (human JAK2): < 1 µM
IC50 (human JAK3): < 0.5 µM
GI50 [1]: < 20 µM
IC50 (BaF3 wild-type cells): > 20 µM
IC50 (CTLL2): < 20 µM

C=CC(=O)Nc1ccc(Sc2ccnc(Nc3ccc(C#N)cc3)n2)cc1 [Compound 131, N-(4-(2-(4-cyanophenylao)pyrimidin-4-ylthio)phenyl)acrylamide]
IC50 (human JAK2): > 1 µM
IC50 (human JAK3): < 0.1 µM
GI50 [1]: < 20 µM
IC50 (BaF3 wild-type cells): < 5 µM
IC50 (CTLL2): < 20 µM

C=CC(=O)Nc1ccc(Sc2ccnc(Nc3ccc(N4CCOCC4)cc3)n2)c(Cl)c1C [Compound 161, N-(3-chloro-2-methyl-4-(2-(4-morpholinophenylao)pyrimidin-4-ylthio)phenyl)acrylamide]
IC50 (human JAK2): > 1 µM
IC50 (human JAK3): < 0.1 µM
GI50 [1]: > 20 µM
IC50 (BaF3 wild-type cells): > 20 µM
IC50 (CTLL2): < 5 µM

C=CC(=O)Nc1ccc(Sc2nc(Nc3ccc(N4CCOCC4)cc3)ncc2-c2ccccc2)cc1 [Compound 307, N-(4-(2-(4-morpholinophenylao)-5-phenylpyrimidin-4-ylthio)phenyl)acrylamide]
IC50 (human JAK2): > 1 µM
IC50 (human JAK3): < 0.1 µM
GI50 [1]: > 20 µM
IC50 (BaF3 wild-type cells): > 20 µM
IC50 (CTLL2): > 20 µM

CCOC(=O)/C=C\C(=O)Nc1ccc(Sc2nc(Nc3ccc(N4CCOCC4)cc3)ncc2C)cc1 [Compound 388, (Z)-ethyl 4-(4-(5-methyl-2-(4-morpholinophenylao)pyrimidin-4-ylthio)phenylao)-4-oxobut-2-enoate]
IC50 (human JAK2): < 0.5 µM
IC50 (human JAK3): < 0.1 µM
GI50 [1]: < 5 µM
IC50 (BaF3 wild-type cells): < 5 µM
IC50 (CTLL2): < 5 µM

N#Cc1nccc(Sc2ccc(Sc3ccnc(Nc4ccc(N5CCOCC5)cc4)n3)cc2)n1 [Compound 154, 4-(4-(2-(4-morpholinophenylao)pyrimidin-4-ylthio)phenylthio)pyrimidine-2-carbonitrile]
IC50 (human JAK2): > 1 µM
IC50 (human JAK3): < 0.5 µM
GI50 [1]: < 5 µM
IC50 (BaF3 wild-type cells): < 5 µM
IC50 (CTLL2): < 5 µM

C=CC(=O)Nc1cc(C)c(Sc2nc(Nc3ccc(N4CCOCC4)cc3)ncc2C)c(C)c1 [Compound 164, N-(3,5-dimethyl-4-(5-methyl-2-(4-morpholinophenylao)pyrimidin-4-ylthio)phenyl)acrylamide]
IC50 (human JAK2): > 1 µM
IC50 (human JAK3): < 0.1 µM
GI50 [1]: < 20 µM
IC50 (BaF3 wild-type cells): > 20 µM
IC50 (CTLL2): < 1 µM

C=CC(=O)N(C)c1ccc(Sc2ccnc(Nc3ccc(N4CCOCC4)cc3)n2)cc1 [Compound 91, N-methyl-N-(4-(2-(4-morpholinophenylao)pyrimidin-4-ylthio)phenyl)acrylamide]
IC50 (human JAK2): > 1 µM
IC50 (human JAK3): < 0.1 µM
GI50 [1]: < 20 µM
IC50 (BaF3 wild-type cells): > 20 µM
IC50 (CTLL2): < 1 µM

C=CC(=O)Nc1ccc(Sc2nc(Nc3ccc(N4CCOCC4)cc3)ncc2Cl)cc1 [Compound 315, N-(4-(5-chloro-2-(4-morpholinophenylao)pyrimidin-4-ylthio)phenyl)acrylmide]
IC50 (human JAK2): > 1 µM
IC50 (human JAK3): < 0.1 µM
GI50 [1]: > 20 µM
IC50 (BaF3 wild-type cells): > 20 µM
IC50 (CTLL2): < 1 µM

CC(=O)Nc1ccc(Sc2ccnc(Nc3ccc(N4CCC(N5CCCC5)CC4)cc3)n2)cc1 [Compound 86, N-(4-(2-(4-(4-(pyrrolidin-1-yl)piperidin-1-yl)phenylao)pyrimidin-4-ylthio)phenyl)acetamide]
IC50 (human JAK2): > 1 µM
IC50 (human JAK3): < 0.5 µM
GI50 [1]: < 20 µM
IC50 (BaF3 wild-type cells): < 5 µM
IC50 (CTLL2): < 5 µM

COC(=O)COCC(=O)Nc1ccc(Sc2nc(Nc3ccc(N4CCOCC4)cc3)ncc2C)cc1 [Compound 189, methyl 2-(2-(4-(5-methyl-2-(4-morpholinophenylao)pyrimidin-4-ylthio)phenylao)-2-oxoethoxy)acetate]
IC50 (human JAK2): > 1 µM
IC50 (human JAK3): < 0.5 µM
GI50 [1]: < 20 µM
IC50 (BaF3 wild-type cells): < 20 µM
IC50 (CTLL2): > 20 µM

C=CC(=O)Nc1ccc(Sc2ccnc(Nc3ccc(S(=O)(=O)NCc4ccccc4)cc3)n2)cc1 [Compound 368, N-(4-(2-(4-(N-benzylsulfamoyl)phenylao)pyrimidin-4-ylthio)phenyl)acrylamide]
IC50 (human JAK2): > 1 µM
IC50 (human JAK3): < 0.1 µM
GI50 [1]: < 20 µM
IC50 (BaF3 wild-type cells): < 20 µM
IC50 (CTLL2): < 5 µM

Cc1cnc(Nc2ccc(N3CCOCC3)cc2)nc1Sc1ccc(N)cc1 [Compound 126, 4-(4-aophenylthio)-5-methyl-N-(4-morpholinophenyl)pyrimidin-2-ae]
IC50 (human JAK2): < 0.5 µM
IC50 (human JAK3): < 0.1 µM
GI50 [1]: < 5 µM
IC50 (BaF3 wild-type cells): > 20 µM
IC50 (CTLL2): < 5 µM

C=CC(=O)Nc1ccc(Sc2nc(Nc3ccc(N4CCOCC4)cc3)ncc2I)cc1 [Compound 313, N-(4-(5-iodo-2-(4-morpholinophenylao)pyrimidin-4-ylthio)phenyl)acrylamide]
IC50 (human JAK2): > 1 µM
IC50 (human JAK3): < 0.1 µM
GI50 [1]: > 20 µM
IC50 (BaF3 wild-type cells): > 20 µM
IC50 (CTLL2): < 5 µM

Cc1cnc(Nc2ccc(N3CCOCC3)cc2)nc1Sc1ccc(NC(=O)/C(Br)=C\C(=O)O)cc1 [Compound 381, (E)-3-bromo-4-(4-(5-methyl-2-(4-morpholinophenylao)pyrimidin-4-ylthio)phenylao)-4-oxobut-2-enoic acid]
IC50 (human JAK2): > 1 µM
IC50 (human JAK3): < 0.5 µM
GI50 [1]: > 20 µM
IC50 (BaF3 wild-type cells): > 20 µM
IC50 (CTLL2): < 20 µM

C=CC(=O)Nc1ccc(Sc2ccnc(Nc3cccc([N+](=O)[O-])c3)n2)cc1 [Compound 361, N-(4-(2-(3-nitrophenylao)pyrimidin-4-ylthio)phenyl)acrylamide]
IC50 (human JAK2): > 1 µM
IC50 (human JAK3): < 0.1 µM
GI50 [1]: < 5 µM
IC50 (BaF3 wild-type cells): > 20 µM
IC50 (CTLL2): > 20 µM

C=CC(=O)Nc1ccc(Sc2nc(Nc3ccc(O)cc3)ncc2C)cc1 [Compound 282, N-(4-(2-(4-hydroxyphenylao)-5-methylpyrimidin-4-ylthio)phenyl)acrylamide]
IC50 (human JAK2): > 1 µM
IC50 (human JAK3): < 0.1 µM
GI50 [1]: < 20 µM
IC50 (BaF3 wild-type cells): < 20 µM
IC50 (CTLL2): < 1 µM

C=CC(=O)Nc1ccc(Sc2nc(Nc3ccc(N4CCOCC4)cc3)ncc2C)cc1 [Compound 124, N-(4-(5-methyl-2-(4-morpholinophenylao)pyrimidin-4-ylthio)phenyl)acrylamide]
IC50 (human JAK2): > 1 µM
IC50 (human JAK3): < 0.1 µM
GI50 [1]: > 20 µM
IC50 (BaF3 wild-type cells): > 20 µM
IC50 (CTLL2): < 1 µM

C=CC(=O)Nc1ccc(Sc2ccnc(Nc3cccc(N4CCCC4)c3)n2)cc1 [Compound 355, N-(4-(2-(3-(pyrrolidin-1-yl)phenylao)pyrimidin-4-ylthio)phenyl)acrylamide]
IC50 (human JAK2): > 1 µM
IC50 (human JAK3): < 0.1 µM
GI50 [1]: < 20 µM
IC50 (BaF3 wild-type cells): < 20 µM
IC50 (CTLL2): < 5 µM
